Numbered stars: 1 amine (or outer) side, 2 acyl side, 3 side chain; on linkers, the order of the positions; unused ones are H or OH. Bridge positions count the residues as written; N and C are the ends. Square brackets hold non-standard residues; d marks the D form. Peptide text beside a SMILES is read from it. * marks the point of attachment. ξ: configuration not given here. X17 = NC(=O)[C@H](CCCCNC(=O)CN1CCN(CC(=O)O)CCN(CC(=O)O)CCN(CC(=O)O)CC1)NC(=O)CCC(=O)NCCCOCCOCCOCCCN*; TBMB(SCH2CH2NH-DOTA) = O=C(O)CN1CCN(CC(=O)O)CCN(CC(=O)NCCSCc2cc(C[*:1])cc(C[*:2])c2)CCN(CC(=O)O)CC1; X7 = O=C(CCP(=O)(O)CN1CCN(CP(=O)(O)CO)CCN(CP(=O)(O)CO)CC1)NCCSCc1cc(C[*:1])cc(C[*:2])c1; mXylylene = c1cc(C[*:1])cc(C[*:2])c1; Hexanoyl = CCCCCC(=O)*; CO = O=C([*:1])[*:2]; ξC = NC(CS)C(=O)O; Sar = CNCC(=O)O; NHBu = CCCCN*
Experiments:
[1] = target: T1, FAP-expressing human WI-38 fibroblasts (Homo sapiens, UniProt Q12884); experiment: Competitive FACS binding assay
T1 construct: FAP-expressing human WI-38 fibroblasts (ECACC) were cultured in EMEM; host or cells: WI-38 human fibroblasts
Protocol: Cells were analyzed in an Attune NxT flow cytometer. […] […].
Cells were analyzed in an Attune NxT flow cytometer. […]

Human recombinant FAP [2] = target: T2, Human recombinant FAP (Homo sapiens, UniProt Q12884); experiment: Surface plasmon resonance (Biacore) assay; type: binding
in vivo = settings: female, athymic nude, mouse, iv, ^68Ga-labeled, PET/CT; for tissue uptake at 0.25 h: 0.25 h post tracer injection; for tissue uptake at 1 h: 1 h post tracer injection; for tissue uptake at 3 h: 3 h post tracer injection
Human recombinant FAP [3] = target: T2, Human recombinant FAP; experiment: FRET-based FAP protease activity assay; type: biochemical; set-up: purchased R&D systems 3715-SE
[4] = blood pool surrogate (BPS), uptake BPS 0.25 h, BPS (blood pool surrogate)
[5] = blood pool surrogate (BPS), uptake BPS 1 h, BPS (blood pool surrogate)
[6] = blood pool surrogate (BPS), uptake BPS 3 h, BPS (blood pool surrogate)
[7] = tumor, uptake Tumor 0.25 h, HEK-FAP tumor
[8] = tumor, uptake Tumor 1 h, HEK-FAP tumor
[9] = tumor, uptake Tumor 3 h, HEK-FAP tumor
[10] = pIC50 Category (activity), Recombinant human FAP
[11] = pIC50 Category (Activity), FRET-based FAP protease activity assay, recombinant human FAP, 37° C.
[12] = pIC50 Category (Activity), FRET-peptide substrate, 37° C.

T1 sequence (Q12884 whole entry): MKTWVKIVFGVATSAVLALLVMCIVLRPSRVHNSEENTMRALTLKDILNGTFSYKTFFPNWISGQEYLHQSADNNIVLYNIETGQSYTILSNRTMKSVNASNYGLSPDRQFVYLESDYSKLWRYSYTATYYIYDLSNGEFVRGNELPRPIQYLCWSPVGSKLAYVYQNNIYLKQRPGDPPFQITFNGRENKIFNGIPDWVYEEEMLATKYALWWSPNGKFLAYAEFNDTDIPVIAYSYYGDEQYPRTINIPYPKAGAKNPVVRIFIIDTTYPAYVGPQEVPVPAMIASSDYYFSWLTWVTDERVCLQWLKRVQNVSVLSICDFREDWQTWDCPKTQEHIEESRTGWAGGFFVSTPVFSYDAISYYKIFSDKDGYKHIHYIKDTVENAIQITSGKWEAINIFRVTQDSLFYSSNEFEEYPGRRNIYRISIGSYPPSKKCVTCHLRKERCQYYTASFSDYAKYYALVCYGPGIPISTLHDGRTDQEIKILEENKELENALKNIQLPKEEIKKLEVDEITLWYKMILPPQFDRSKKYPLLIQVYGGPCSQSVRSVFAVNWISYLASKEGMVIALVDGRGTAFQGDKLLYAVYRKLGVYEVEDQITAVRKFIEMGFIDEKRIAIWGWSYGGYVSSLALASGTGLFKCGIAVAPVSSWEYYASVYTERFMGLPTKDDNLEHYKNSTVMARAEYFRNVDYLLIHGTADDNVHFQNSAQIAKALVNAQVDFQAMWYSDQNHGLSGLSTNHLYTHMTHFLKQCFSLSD
T2 sequence (Q12884 whole entry): as above

CCCCNC(=O)N[C@H]1CSCc2cc(CSCCNC(=O)CCP(=O)(O)CN3CCN(CP(=O)(O)CO)CCN(CP(=O)(O)CO)CC3)cc(c2)CSCC(C(=O)O)NC(=O)[C@H](Cc2ccccc2)NC(=O)[C@H](CCC(N)=O)NC(=O)[C@H]([C@@H](C)O)NC(=O)[C@@H]2CCCN2C(=O)[C@@H]2CCCN2C1=O (stereo partly drawn) [3BP-4768, nBu-CAyl-[Cys(tMeBn(NOPO-AET))-Pro-Pro-Thr-Gln-Phe-Cys]-OH]
IC50 [1]: < 10 nM
Kd (Human recombinant FAP [2]): < 10 nM
tissue uptake at 0.25 h (in vivo; [4]): 2.54 %ID/g
tissue uptake at 1 h (in vivo; [5]): 0.78 %ID/g
tissue uptake at 3 h (in vivo; [6]): 0.27 %ID/g
tissue uptake at 0.25 h (in vivo; kidneys, uptake Kidneys 0.25 h): 18.4 %ID/g
tissue uptake at 1 h (in vivo; kidneys, uptake Kidneys 1 h): 2.45 %ID/g
tissue uptake at 3 h (in vivo; kidneys, uptake Kidneys 3 h): 0.67 %ID/g
tissue uptake at 0.25 h (in vivo; [7]): 7.82 %ID/g
tissue uptake at 1 h (in vivo; [8]): 9.42 %ID/g
tissue uptake at 3 h (in vivo; [9]): 9.2 %ID/g
IC50 (Human recombinant FAP [3]; [10]): < 10 nM

CCCCNC(=O)N[C@H]1CSCc2cc(CSCCNC(=O)CCP(=O)(O)CN3CCN(CP(=O)(O)CO)CCN(CP(=O)(O)CO)CC3)cc(c2)CSCC(C(=O)O)NC(=O)[C@H](Cc2ccccc2)NC(=O)[C@H](CCC(=O)O)NC(=O)[C@H]([C@@H](C)O)NC(=O)[C@@H]2CCCN2C(=O)[C@@H]2CCCN2C1=O (stereo partly drawn) [3BP-4778, nBu-CAyl-[Cys(tMeBn(NOPO-AET))-Pro-Pro-Thr-Glu-Phe-Cys]-OH] ({NHBu-CO}-CPPTEF[ξC]-OH; linker 1-7 via X7)
IC50 [1]: < 10 nM
Kd (Human recombinant FAP [2]): < 10 nM
tissue uptake at 0.25 h (in vivo; [4]): 1.61 %ID/g
tissue uptake at 1 h (in vivo; [5]): 0.77 %ID/g
tissue uptake at 3 h (in vivo; [6]): 0.33 %ID/g
tissue uptake at 0.25 h (in vivo; kidneys, uptake Kidneys 0.25 h): 3.38 %ID/g
tissue uptake at 1 h (in vivo; kidneys, uptake Kidneys 1 h): 1.81 %ID/g
tissue uptake at 3 h (in vivo; kidneys, uptake Kidneys 3 h): 1 %ID/g
tissue uptake at 0.25 h (in vivo; [7]): 3.66 %ID/g
tissue uptake at 1 h (in vivo; [8]): 4.06 %ID/g
tissue uptake at 3 h (in vivo; [9]): 4.45 %ID/g
IC50 (Human recombinant FAP [3]; [10]): < 10 nM

CCCCCC(=O)N[C@H]1CSCc2cc(CSCCNC(=O)CN3CCN(CC(=O)O)CCN(CC(=O)O)CCN(CC(=O)O)CC3)cc(c2)CSC[C@@H](C(=O)N(C)CC(=O)O)NC(=O)[C@H](Cc2ccccc2)NC(=O)[C@H](CCC(N)=O)NC(=O)[C@H]([C@@H](C)O)NC(=O)[C@@H]2CCCN2C(=O)[C@@H]2CCCN2C1=O [3BP-3659, Hex-[Cys(tMeBn(DOTA-AET))-Pro-Pro-Thr-Gln-Phe-Cys]-Nmg-OH]
IC50 [1]: < 10 nM
Kd (Human recombinant FAP [2]): < 10 nM
IC50 (Human recombinant FAP [3]; [11]): < 10 nM

CCOCCC(=O)N[C@H]1CSCc2cc(CSCCNC(=O)CN3CCN(CC(=O)O)CCN(CC(=O)O)CCN(CC(=O)O)CC3)cc(c2)CSC[C@@H](C(=O)O)NC(=O)[C@H](Cc2ccccc2)NC(=O)[C@H](CCC(N)=O)NC(=O)[C@H]([C@@H](C)O)NC(=O)[C@@H]2CCCN2C(=O)[C@@H]2CCCN2C1=O [3BP-3918, EtOPr-[Cys(tMeBn(DOTA-AET))-Pro-Pro-Thr-Gln-Phe-Cys]-OH]
IC50 [1]: < 10 nM
Kd (Human recombinant FAP [2]): < 10 nM
pKD Category (Human recombinant FAP [2]; Biacore assay): A (Category A stands for pKD values >8.0)
IC50 (Human recombinant FAP [3]; [12]): < 10 nM

CCCCCC(=O)N[C@H]1CSCc2cc(CSCCNC(=O)CN3CCN(CC(=O)O)CCN(CC(=O)O)CCN(CC(=O)O)CC3)cc(c2)CSC[C@@H](C(=O)NCC(=O)O)NC(=O)[C@H](Cc2ccccc2)NC(=O)[C@H](CCC(N)=O)NC(=O)[C@H]([C@@H](C)O)NC(=O)[C@@H]2CCCN2C(=O)[C@@H]2CCCN2C1=O [3BP-3656, Hex-[Cys(tMeBn(DOTA-AET))-Pro-Pro-Thr-Gln-Phe-Cys]-Gly-OH] (Hexanoyl-CPPTQFCG-OH; linker 1-7 via TBMB(SCH2CH2NH-DOTA))
IC50 [1]: < 10 nM
Kd (Human recombinant FAP [2]): < 10 nM
IC50 (Human recombinant FAP [3]; [11]): < 10 nM

CCCCCC(=O)N[C@H]1CSCc2cc(CSCCNC(=O)CN3CCN(CC(=O)O)CCN(CC(=O)O)CCN(CC(=O)O)CC3)cc(c2)CSC[C@@H](C(=O)O)NC(=O)[C@H](Cc2ccccc2)NC(=O)[C@H](CCC(N)=O)NC(=O)[C@H]([C@@H](C)O)NC(=O)[C@@H]2CCCN2C(=O)CN(C)C1=O [3BP-3678, Hex-[Cys(tMeBn(DOTA-AET))-Nmg-Pro-Thr-Gln-Phe-Cys]-OH] (Hexanoyl-C[Sar]PTQFC-OH; linker 1-7 via TBMB(SCH2CH2NH-DOTA))
IC50 [1]: < 10 nM
Kd (Human recombinant FAP [2]): < 10 nM
IC50 (Human recombinant FAP [3]; [11]): < 10 nM

CCCCCC(=O)N[C@H]1CSCc2cc(CSCCNC(=O)CN3CCN(CC(=O)O)CCN(CC(=O)O)CCN(CC(=O)O)CC3)cc(c2)CSC[C@@H](C(=O)N[C@H](CC(=O)O)Cc2ccccc2)NC(=O)[C@H](Cc2ccccc2)NC(=O)[C@H](CCC(N)=O)NC(=O)[C@H]([C@@H](C)O)NC(=O)[C@@H]2CCCN2C(=O)[C@@H]2CCCN2C1=O [3BP-3660, Hex-[Cys(tMeBn(DOTA-AET))-Pro-Pro-Thr-Gin-Phe-Cys]-Bhf-OH]
IC50 [1]: < 10 nM
Kd (Human recombinant FAP [2]): < 10 nM
IC50 (Human recombinant FAP [3]; [11]): < 10 nM

CCCCCC(=O)N[C@H]1CSCc2cc(CSCCNC(=O)CN3CCN(CC(=O)O)CCN(CC(=O)O)CCN(CC(=O)O)CC3)cc(c2)CSC[C@@H](C(=O)N[C@H](CC(=O)O)C(N)=O)NC(=O)[C@H](Cc2ccccc2)NC(=O)[C@H](CCC(N)=O)NC(=O)[C@H]([C@@H](C)O)NC(=O)[C@@H]2CCCN2C(=O)[C@@H]2CCCN2C1=O [3BP-3681, Hex-[Cys(tMeBn(DOTA-AET))-Pro-Pro-Thr-Gln-Phe-Cys]-asp-NH2]
IC50 [1]: < 10 nM
Kd (Human recombinant FAP [2]): < 10 nM
IC50 (Human recombinant FAP [3]; [11]): < 10 nM

CCCCNC(=O)N[C@H]1CSCc2cc(cc(CN3CCN(C(=O)CN4CCN(CC(=O)O)CCN(CC(=O)O)CCN(CC(=O)O)CC4)CC3)c2)CSC[C@@H](C(N)=O)NC(=O)[C@H](Cc2ccccc2)NC(=O)[C@H](CCC(N)=O)NC(=O)[C@H]([C@@H](C)O)NC(=O)[C@@H]2CCCN2C(=O)[C@@H]2CCCN2C1=O [3BP-4565, nBu-CAyl-[Cys(tMeBn(DOTA-PP))-Pro-Pro-Thr-Gln-Phe-Cys]-NH2]
IC50 [1]: < 10 nM
Kd (Human recombinant FAP [2]): < 10 nM
IC50 (Human recombinant FAP [3]; [12]): < 10 nM

CCCC[C@H](NC(=O)CCC(=O)NCCCOCCOCCOCCCNC(=O)[C@H](CCC(=O)NC[C@H](O)[C@@H](O)[C@H](O)[C@H](O)CO)NC(=O)C(CNCCN)CNCCN)C(=O)N[C@H]1CSCc2cccc(c2)CSC[C@@H](C(=O)O)NC(=O)[C@H](Cc2ccccc2)NC(=O)[C@H](CCC(N)=O)NC(=O)[C@H]([C@@H](C)O)NC(=O)[C@@H]2CCCN2C(=O)[C@@H]2CCCN2C1=O [3BP-4246, N4Ac-Glu(AGLU)-Ttds-Nle-[Cys-(3MeBn)-Pro-Pro-Thr-Gln-Phe-Cys]-OH]
IC50 [1]: 10 to 79.4 nM
Kd (Human recombinant FAP [2]): < 10 nM
IC50 (Human recombinant FAP [3]; [12]): 10 to 79.4 nM

CCCCCC(=O)N[C@H]1CSCc2cccc(c2)CSC[C@@H](C(=O)N[C@@H](CC(=O)O)C(=O)NCCCOCCOCCOCCCNC(=O)CCC(=O)N[C@@H](CCCCNC(=O)CN2CCN(CC(=O)O)CCN(CC(=O)O)CCN(CC(=O)O)CC2)C(N)=O)NC(=O)[C@H](Cc2ccccc2)NC(=O)[C@H](CCC(N)=O)NC(=O)[C@H]([C@@H](C)O)NC(=O)[C@@H]2CCCN2C(=O)[C@@H]2CCCN2C1=O [3BP-3395, Hex-[Cys(3MeBn)-Pro-Pro-Thr-Gln-Phe-Cys]-Asp-Ttds-Lys(DOTA)-NH2] (Hexanoyl-CPPTQFCD-X17; linker 1-7 via mXylylene)
IC50 [1]: < 10 nM
Kd (Human recombinant FAP [2]): < 10 nM
IC50 (Human recombinant FAP [3]; [11]): < 10 nM

CCCCCC(=O)N[C@H]1CSCc2cc(CSCCNC(=O)CN3CCN(CC(=O)O)CCN(CC(=O)O)CCN(CC(=O)O)CC3)cc(c2)CSC[C@@H](C(=O)N[C@@H](CO)C(=O)O)NC(=O)[C@H](Cc2ccccc2)NC(=O)[C@H](CCC(N)=O)NC(=O)[C@H]([C@@H](C)O)NC(=O)[C@@H]2CCCN2C(=O)[C@@H]2CCCN2C1=O [3BP-3658, Hex-[Cys(tMeBn(DOTA-AET))-Pro-Pro-Thr-Gln-Phe-Cys]-Ser-OH] (Hexanoyl-CPPTQFCS-OH; linker 1-7 via TBMB(SCH2CH2NH-DOTA))
IC50 [1]: < 10 nM
Kd (Human recombinant FAP [2]): < 10 nM
IC50 (Human recombinant FAP [3]; [11]): < 10 nM

— patent US20230212549A1, “COMPOUNDS COMPRISING A […] LIGAND AND USE THEREOF” (priority 2021, published 2023)
